Reference: the NIST ThermoML archive (doi:10.1016/j.jct.2012.02.007)
± gives the expanded uncertainty stated by the source.

Assays:
[1] = mn = molality of the nth substance listed, in mol/kg; conditions: 101.3 kPa, Liquid; for speed of sound: Sing-around technique in a fixed-path interferometer; for mass density: Vibrating tube method
[2] = osmotic coefficient (dimensionless); mn = molality of the nth substance listed, in mol/kg; conditions: 323.15 K, Liquid, Vapor Pressure Osmometer

CCCCn1cc[n+](C)c1.N#CN=C=[N-] [1-butyl-3-methylimidazolium dicyanamide] + CCC(C)O
[1]
Conditions | mass density, 293.15 K [kg/m3] | mass density, 308.15 K [kg/m3] | mass density, 323.15 K [kg/m3] | speed of sound, 293.15 K [m/s] | speed of sound, 308.15 K [m/s] | speed of sound, 323.15 K [m/s]
m1 = 0.0516 | 809.04 ± 0.12 | 796.59 ± 0.12 | 783.23 ± 0.13 | 1234.5 ± 0.9 | 1180.7 ± 0.9 | 1125.7 ± 0.8
m1 = 0.1009 | 811.17 ± 0.12 | 798.81 ± 0.12 | 785.57 ± 0.13 | 1238.1 ± 0.9 | 1184.9 ± 0.9 | 1130.4 ± 0.8
m1 = 0.1501 | 813.3 ± 0.12 | 801.01 ± 0.12 | 787.88 ± 0.13 | 1241.8 ± 0.9 | 1188.8 ± 0.9 | 1134.6 ± 0.9
m1 = 0.2081 | 815.7 ± 0.12 | 803.5 ± 0.12 | 790.47 ± 0.13 | 1246 ± 0.9 | 1193.3 ± 0.9 | 1139.5 ± 0.9
m1 = 0.2579 | 817.76 ± 0.12 | 805.61 ± 0.12 | 792.68 ± 0.13 | 1249.3 ± 0.9 | 1197.1 ± 0.9 | 1143.6 ± 0.9
m1 = 0.5079 | 827.23 ± 0.12 | 815.35 ± 0.13 | 802.8 ± 0.1 | 1265.7 ± 0.9 | 1214.4 ± 0.9 | 1162.3 ± 0.9
m1 = 0.7631 | 836.25 ± 0.13 | 824.57 ± 0.13 | 812.32 ± 0.13 | 1281.1 ± 1 | 1230.8 ± 0.9 | 1179.8 ± 0.9
m1 = 1.016 | 844.37 ± 0.13 | 832.86 ± 0.14 | 820.86 ± 0.14 | 1295.3 ± 1 | 1245.9 ± 1 | 1195.9 ± 1
m1 = 1.267 | 851.96 ± 0.14 | 840.59 ± 0.14 | 828.79 ± 0.14 | 1308.6 ± 1 | 1260 ± 1 | 1210.9 ± 1
m1 = 1.517 | 858.95 ± 0.14 | 847.71 ± 0.15 | 836.09 ± 0.15 | 1321.1 ± 1.1 | 1273 ± 1.1 | 1224.8 ± 1
m1 = 1.782 | 865.94 ± 0.15 | 854.81 ± 0.16 | 843.35 ± 0.16 | 1333.7 ± 1.1 | 1286.2 ± 1.1 | 1238.7 ± 1.1
m1 = 1.95 | 870.16 ± 0.16 | 859.09 ± 0.16 | 847.71 ± 0.16 | 1341.3 ± 1.1 | 1294.2 ± 1.1 | 1247 ± 1.1
m1 = 2.523 | 883.17 ± 0.18 | 872.28 ± 0.18 | 861.18 ± 0.18 | 1365.1 ± 1.2 | 1319.1 ± 1.2 | 1273.2 ± 1.2
m1 = 3.56 | 902.51 ± 0.22 | 891.67 ± 0.22 | 880.92 ± 0.22 | 1401.6 ± 1.3 | 1356.4 ± 1.3 | 1312.5 ± 1.3

[2]
Conditions | osmotic coefficient
m1 = 0.0525 | 0.893 ± 0.013
m1 = 0.0792 | 0.826 ± 0.014
m1 = 0.0995 | 0.811 ± 0.014
m1 = 0.2159 | 0.76 ± 0.015
m1 = 0.3148 | 0.715 ± 0.016
m1 = 0.4003 | 0.687 ± 0.016
m1 = 0.5143 | 0.653 ± 0.017
m1 = 0.8478 | 0.592 ± 0.019
m1 = 1.241 | 0.556 ± 0.02
m1 = 1.639 | 0.538 ± 0.02
m1 = 2.038 | 0.524 ± 0.021
m1 = 2.439 | 0.517 ± 0.021
m1 = 2.842 | 0.502 ± 0.021
m1 = 3.307 | 0.492 ± 0.022

CCCCn1cc[n+](C)c1.N#CN=C=[N-] [1-butyl-3-methylimidazolium dicyanamide] + CCCO
[1]
Conditions | mass density, 293.15 K [kg/m3] | mass density, 308.15 K [kg/m3] | mass density, 323.15 K [kg/m3] | speed of sound, 293.15 K [m/s] | speed of sound, 308.15 K [m/s] | speed of sound, 323.15 K [m/s]
m1 = 0.0646 | 807.07 ± 0.12 | 795.05 ± 0.12 | 782.64 ± 0.12 | 1229.5 ± 0.8 | 1178.7 ± 0.8 | 1128.5 ± 0.8
m1 = 0.1004 | 808.7 ± 0.12 | 796.71 ± 0.12 | 784.35 ± 0.12 | 1232.4 ± 0.8 | 1181.7 ± 0.8 | 1131.7 ± 0.8
m1 = 0.154 | 811.09 ± 0.12 | 799.15 ± 0.12 | 786.83 ± 0.12 | 1236.7 ± 0.9 | 1186.2 ± 0.8 | 1136.4 ± 0.8
m1 = 0.2041 | 813.27 ± 0.12 | 801.36 ± 0.12 | 789.09 ± 0.12 | 1240.4 ± 0.9 | 1190 ± 0.8 | 1140.4 ± 0.8
m1 = 0.2521 | 815.21 ± 0.12 | 803.31 ± 0.12 | 791.08 ± 0.12 | 1243.9 ± 0.9 | 1193.4 ± 0.9 | 1143.8 ± 0.8
m1 = 0.5071 | 825.41 ± 0.12 | 813.67 ± 0.12 | 801.63 ± 0.13 | 1261.1 ± 0.9 | 1211.6 ± 0.9 | 1162.8 ± 0.9
m1 = 0.7606 | 834.72 ± 0.12 | 823.09 ± 0.12 | 811.21 ± 0.13 | 1277.2 ± 0.9 | 1228.3 ± 0.9 | 1180.1 ± 0.9
m1 = 1.012 | 843.22 ± 0.12 | 831.69 ± 0.13 | 819.94 ± 0.13 | 1292.2 ± 1 | 1243.8 ± 0.9 | 1196.2 ± 0.9
m1 = 1.263 | 851.11 ± 0.13 | 839.67 ± 0.13 | 828.03 ± 0.13 | 1306.2 ± 1 | 1258.2 ± 1 | 1211.2 ± 1
m1 = 1.512 | 858.43 ± 0.13 | 847.07 ± 0.14 | 835.54 ± 0.14 | 1319.4 ± 1 | 1271.9 ± 1 | 1225.3 ± 1
m1 = 1.765 | 865.25 ± 0.14 | 853.97 ± 0.14 | 842.54 ± 0.15 | 1331.8 ± 1.1 | 1284.7 ± 1 | 1238.6 ± 1
m1 = 2.017 | 871.65 ± 0.15 | 860.45 ± 0.15 | 849.11 ± 0.15 | 1343.6 ± 1.1 | 1297 ± 1.1 | 1251.3 ± 1.1
m1 = 2.52 | 883.38 ± 0.16 | 872.29 ± 0.17 | 861.11 ± 0.17 | 1365.8 ± 1.1 | 1319.7 ± 1.1 | 1274.6 ± 1.1
m1 = 2.826 | 889.83 ± 0.17 | 878.84 ± 0.18 | 867.75 ± 0.18 | 1377.8 ± 1.2 | 1332.3 ± 1.2 | 1287.8 ± 1.2
m1 = 3.488 | 902.23 ± 0.2 | 891.37 ± 0.2 | 880.45 ± 0.2 | 1401.8 ± 1.3 | 1357.1 ± 1.2 | 1313.3 ± 1.2

[2]
Conditions | osmotic coefficient
m1 = 0.0543 | 0.973 ± 0.012
m1 = 0.0899 | 0.898 ± 0.013
m1 = 0.1032 | 0.871 ± 0.013
m1 = 0.2057 | 0.816 ± 0.014
m1 = 0.3018 | 0.78 ± 0.014
m1 = 0.4097 | 0.748 ± 0.015
m1 = 0.5035 | 0.737 ± 0.015
m1 = 0.8276 | 0.714 ± 0.016
m1 = 1.24 | 0.691 ± 0.016
m1 = 1.64 | 0.668 ± 0.017
m1 = 2.049 | 0.646 ± 0.017
m1 = 2.45 | 0.634 ± 0.018
m1 = 2.837 | 0.616 ± 0.018
m1 = 3.324 | 0.599 ± 0.019
